Laboratory results reported in patent publication US7803930B2, “Antisense modulation of apolipoprotein B-expression” (Isis Pharmaceuticals, Inc., priority 2002, dated 2010).
In the oligonucleotide strings, read from the 5' end, every base follows the letter of its sugar. An asterisk marks phosphorothioate; unmarked linkages are phosphodiester. Other units and linkages are bracketed, terminal groups are in braces. A string of capitals states the bases alone. e = 2'-O-(2-methoxyethyl) (MOE); [5mC] = 5-methylcytosine; d = 2'-deoxy (DNA)

Assays:
[1] = ob/ob mice (Example 50): cholesterol, lipid, triglyceride, liver enzyme and glucose levels; assay type: in vivo, mouse; settings: high fat high cholesterol diet, 50 mg/kg i.p. twice a week, six weeks
Summary of the method: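 Ob/ob mice on 60% kcal fat diet with 0.15% cholesterol received 50 mg/kg oligonucleotide i.p. twice weekly for six weeks, with saline and control oligonucleotides.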

[2] = Lean vs high fat fed C57BL/6 mice (Example 20): cholesterol, lipoprotein, triglyceride, liver enzyme and serum glucose levels; assay type: in vivo, mouse; settings: 50 mg/kg i.p. every three days, six weeks
Experimental: Male C57BL/6 mice were divided into two matched groups; (1) wild-type control animals (lean animals) and (2) animals receiving a high fat diet (60% kcal fat). Control animals received saline treatment and were maintained on a normal rodent diet. After overnight fasting, mice from each group were dosed intraperitoneally every three days with saline or 50 mg/kg ISIS 147764 (SEQ ID No: 109) for six weeks. At study termination and forty eight hours after the final injections, animals were sacrificed and evaluated for target mRNA levels in liver, cholesterol and triglyceride levels, liver enzyme levels and serum glucose levels.

[3] = High fat fed C57BL/6 mice, 6 week timecourse: body, spleen, liver and fat pad weight; assay type: in vivo, mouse; settings: six weeks, vs saline-treated controls
Experimental: Male C57BL/6 mice (n=8) receiving a high fat diet (60% kcal fat) were evaluated over the course of 6 weeks for the effects of ISIS 147764 on body, spleen, liver and fat pad weight. Control animals received saline treatment (50 mg/kg). […]
At study termination, animals were sacrificed 48 hours after the final injections and body, spleen, liver and fat pad weights were measured. Values are expressed as percent change in body weight or ogan weight compared to the saline-treated control animals. Negative values indicated a decrease in weight.

[4] = C57BL/6NTac-TgN(APOB100) transgenic mice (Example 47): liver enzyme, cholesterol, LDL-cholesterol and triglyceride levels; assay type: in vivo, mouse; settings: C57BL/6NTac-TgN(APOB100) mice, 25 mg/kg
[5] = test system: human apolipoprotein B protein; experiment: Transgenic mice dosing study (Example 52): serum human apolipoprotein B protein by ELISA; assay type: in vivo, human transgene in mouse
Experimental: A long-term study of inhibition of human apolipoprotein B by ISIS 301012 in C57BL/6NTac-TgN(APOB100) mice (Taconic, Germantown, N.Y.) was conducted for a 3 month period. Mice were dosed intraperitoneally twice a week with 10 or 25 mg/kg ISIS 301012 (SEQ ID No: 247) for 12 weeks. Saline-injected animals served as controls. Each treatment group comprised 4 animals.
After 2, 4, 6, 8 and 12 weeks of treatment, serum samples were collected for the purpose of measuring human apolipoprotein B protein. Serum protein was quantitated using an ELISA kit specific for human apolipoprotein B (ALerCHEK Inc., Portland, Me.). The data are shown in Table 30 and each result represents the average of 4 animals. Data are normalized to saline-treated control animals.

[6] = Lean-control group, C57BL/6 mice

Substance: 147764 (eG*eT*e[5mC]*e[5mC]*e[5mC]*dT*dG*dA*dA*dG*dA*dT*dG*dT*d[5mC]*eA*eA*eT*eG*e[5mC]) [compound 147764]
- Glucose [1]: 209.2 mg/dL
- Lipoproteins CHOL [1]: 286.3 mg/dL
- Lipoproteins TRIG [1]: 101.2 mg/dL
- Liver Enzymes ALT [1]: 835.0 IU/L
- Liver Enzymes AST [1]: 406.5 IU/L
- glucose, cholesterol, and triglyceride levels [1]: able to lower

Substance: GTCCCTGAAGATGTCAATGC (2'-MOE gapmer, further chemistry not given here) [ISIS 147764]
- Percent Change CHOL ([2]; High Fat Group, C57BL/6 mice): −67%
- Percent Change GLUC ([2]; High Fat Group, C57BL/6 mice): −28%
- Percent Change Lipoproteins HDL ([2]; High Fat Group, C57BL/6 mice): −65%
- Percent Change Lipoproteins LDL ([2]; High Fat Group, C57BL/6 mice): −87%
- Percent Change CHOL [2, 6]: −63%
- Percent Change Lipoproteins HDL [2, 6]: −44%
- Percent Change Lipoproteins LDL [2, 6]: −64%
- Percent Change TRIG [2, 6]: −34%
- changes in liver enzyme levels ([2]; lean and high fat C57BL/6 mice): No significant changes
- Percent Change Fat (fat pad weight) ([3]; 5 mg/kg i.p.): 10%
- Percent Change Liver weight ([3]; 5 mg/kg i.p.): 18%
- Percent Change Spleen weight ([3]; 5 mg/kg i.p.): 10%
- Percent Change Total Body Wt. ([3]; 5 mg/kg i.p.): 5%
- Percent Change Fat (fat pad weight) ([3]; 25 mg/kg i.p.): 6%
- Percent Change Liver weight ([3]; 25 mg/kg i.p.): 70%
- Percent Change Spleen weight ([3]; 25 mg/kg i.p.): 10%
- Percent Change Total Body Wt. ([3]; 25 mg/kg i.p.): 5%
- Percent Change Fat (fat pad weight) ([3]; 50 mg/kg i.p.): −47%
- Percent Change Liver weight ([3]; 50 mg/kg i.p.): 80%
- Percent Change Spleen weight ([3]; 50 mg/kg i.p.): 46%
- Percent Change Total Body Wt. ([3]; 50 mg/kg i.p.): −4%

Substance: ISIS 301012: SEQ ID NO: 247, antisense oligonucleotide targeted to human apolipoprotein B (antisense GCCTCAGTCTGCTTCGCACC; chemistry not given here)
- LDL-cholesterol levels ([4]; 2 weeks of treatment): 22 mg/dL
- LDL-cholesterol levels ([4]; 4 weeks of treatment): 17 mg/dL
- % Reduction in human apolipoprotein B protein in serum ([5]; 10 mg/kg i.p. twice a week, 2 weeks): 76%
- % Reduction in human apolipoprotein B protein in serum ([5]; 10 mg/kg i.p. twice a week, 4 weeks): 78%
- % Reduction in human apolipoprotein B protein in serum ([5]; 10 mg/kg i.p. twice a week, 6 weeks): 73%
- % Reduction in human apolipoprotein B protein in serum ([5]; 10 mg/kg i.p. twice a week, 8 weeks): 42%
- % Reduction in human apolipoprotein B protein in serum ([5]; 10 mg/kg i.p. twice a week, 12 weeks): 85%
- % Reduction in human apolipoprotein B protein in serum ([5]; 25 mg/kg i.p. twice a week, 2 weeks): 80%
- % Reduction in human apolipoprotein B protein in serum ([5]; 25 mg/kg i.p. twice a week, 4 weeks): 87%
- % Reduction in human apolipoprotein B protein in serum ([5]; 25 mg/kg i.p. twice a week, 6 weeks): 86%
- % Reduction in human apolipoprotein B protein in serum ([5]; 25 mg/kg i.p. twice a week, 8 weeks): 47%
- % Reduction in human apolipoprotein B protein in serum ([5]; 25 mg/kg i.p. twice a week, 12 weeks): 79%
- lowering of human apolipoprotein B protein in serum (ELISA) ([5]; 10 or 25 mg/kg i.p. twice a week, 2, 4, 6 or 12 weeks): approximately 80%
